The record followed here is patent US11160808B2, “Compounds that enhance Atoh1 expression” (Massachusetts Eye & Ear Infirmary, priority 2008, dated 2021).

A short description of series [1]: LD50 (median lethal dose) determination. In kind it is cell-based. The source says:
IC50 is a measure of the effectiveness of a compound in inhibiting biological or biochemical function. LD50 is the amount of a compound required to kill half the members of a tested population.

Series [2] has as its system Math1 enhancer and minimal promoter Luciferase reporter in HEK cells. Kind of series: Math1 Luciferase reporter assay in HEK cells. In kind it is cell-based, human. The note with it: Homo sapiens, HEK293; for pIC50: read-out: IC50; for maximal fold induction: read-out: Maximum (Fold DMSO). The source says: A human embryonic kidney (HEK) cell line stably expressing a Luciferase gene controlled by an Math1 enhancer and minimal promoter was used in a high-throughput screen (HTS) of 144,000 small molecules to identify compounds that increase Math1 expression (i.e., transcription and/or translation). Such compounds can be used to increase the conversion of stem cells, progenitor cells, and support cells to or towards a hair cell. Screens to identify such compounds are described by Li et al., (U.S. Publication No. 2005/0287127) and Li et al., (U.S. application Ser. No. 11/953,797).
HEK cells stably expressing the Math1 Luciferase reporter were plated onto 384 well plates and cultured overnight in medium containing 10% fetal calf serum (FCS). Activation of the Math1 enhancer was measured by the increase in luminescence on a plate reader following addition of a luciferase detection agent. The assay was optimized for cell number, time of incubation, volume of medium, cell lysis reagent and luciferase reagent. Luminescence levels were compared in cells with the Math1-luciferase construct with and without retinoic acid (1 μM), and/or a luciferase construct with and without the Math1 enhancer and minimal promoter region.
To improve assay sensitivity, and reduce the coefficient of variation (CV), a more sensitive luciferase reagent (BriteLite luciferase reporter assay reagent, Perkin Elmer) was used, and Triton-X-100 was added to the lysis reagent to ensure complete lysis of the cells. Following these changes a CV of 4.2% was recorded. These conditions were used for all high-throughput screens. The luminescence threshold for a compound to be positive was defined as a 2-fold increase above the control (e.g., cells exposed to DMSO).
Cells were seeded on 384 well plates and allowed to attach overnight at 37° C. with 5% CO2 in the absence of growth factors. Math1 activation was measured by the increase in luminescence on a plate reader following addition of a luciferase detection reagent. Luminescence was assessed at 24, 48, and 72 hours. These conditions were used to screen 144,000 compounds contained in the small molecule libraries at Harvard University's Laboratory for Drug Discovery in Neurodegeneration (LDDN).
HTS were performed using HEK-Math1 cells seeded in 384 well plates. One compound was added per well using pin transfer. The final concentration of each compound was […]. Cell were incubated in the presence of a compound for 48 hours at 37° C. with 5% CO2. Cell lysates then were collected and bioluminescence determined. Luminescence values were compared normalized against DMSO.
About 20000 compounds were screened per week in 50 plates of 384 well with the aid of robotic systems (Beckman Biomek FX). Compounds were screened at an average final concentration of 0.7 μM (in 0.04% DMSO) with each plate containing 16 wells of 1 μM retinoic acid, as a positive control, and 16 wells of 0.04% DMSO, as a vehicle control. Percent activation of luminescence in the test compounds was determined for cells treated with the compounds against cells treated with DMSO.
Ten compounds, randomly selected from the group of 110 compounds identified in Example 2, were further evaluated, as follows. HEK cells were plated on 96 well plates at a density of 100000 cells per well. One day after plating, 0.1, 1, and 5 μM of each positive compound was added per well in a 10% fetal bovine serum (FBS) DMEM solution. Cells were then lysed 48 hours after addition of the compound and Math1 expression was analyzed using a luciferase reporter assay, as described above, and real-time PCR.
The half maximal inhibitory concentration (IC50) and median lethal dose or Lethal Dose, 50% (LD50) were determined for each of the compounds identified in Example 2 using standard laboratory techniques. IC50 is a measure of the effectiveness of a compound in inhibiting biological or biochemical function. LD50 is the amount of a compound required to kill half the members of a tested population.

pIC50: −log10 of the molar value.

Regarding `O=C(Nc1ccc(Cl)cn1)c1ccc(Br)cc1` [CP-0060729, 4-bromo-N-(5-chloropyridin-2-yl)benzamide], the “LD50” value in series [1] was over 10 µM. Moreover, in series [2], the negative-log IC50 (pIC50) is 6.70 and the maximal fold induction came out at 1.6.

In the case of `N#Cc1c(NC(=O)c2ccccc2F)sc2c1CCCC2` [CP-0060852, N-(3-cyano-4,5,6,7-tetrahydrobenzo[b]thio-phen-2-yl)-2-fluorobenzamide], the “LD50” value in series [1] is over 10 µM. Besides, in series [2], the negative logarithm of the IC50 (pIC50) is 5.60 and the maximal fold induction was determined as 1.8.

`COc1ccc(-c2cn3ccsc3n2)cc1` [CP-0061401, 6-(4-methoxyphenyl) imidazo[2,1-b]thiazole]: the “LD50” value in series [1] was over 10 µM. Moreover, in series [2], the pIC50 is 6.22 and the maximal fold induction amounted to 1.8.

Regarding `CC(C)(C)c1ccc(C(=O)NCC2CCCO2)cc1` (stereo not drawn) [CP-0061566, 4-tert-butyl-N-((tetrahydrofuran-2-yl)methyl)benzamide], the “LD50” value in series [1] was over 10 µM. In series [2], the pIC50 was 6.70 and the maximal fold induction was determined as 2.

For `O=C(c1ccc(-c2ccc(Br)cc2)o1)N1CCOCC1` [CP-0061777, (5-(4-bromophenyl)furan-2-yl)(morpholino)methanone], the “LD50” value in series [1] was over 10 µM. In series [2], the pIC50 was under 5.00 and the maximal fold induction amounted to 2.1.

`Cc1ccccc1-c1nnc(-c2ccccc2)o1` [CP-0062030, 2-phenyl-5-o-tolyl-1,3,4-oxadiazole]: in series [1], the “LD50” value is over 10 µM. In series [2], the pIC50 is 5.70 and the maximal fold induction was found to be 1.6.

With `COc1ccc(OCC(=O)Nc2nccs2)cc1` [CP-0063182, 2-(4-methoxyphenoxy)-N-(thiazol-2-yl)acetamide], the “LD50” value in series [1] is over 10 µM. In addition, in series [2], the pIC50 is 6.70 and the maximal fold induction is 1.7.

In the case of `CCc1c(C)[nH]c2cc(-c3ccc(Cl)cc3)nn2c1=O` [CP-0063375, 2-(4-chlorophenyl)-6-ethyl-5-methylpyrazolo[1,5-a]pyrimidin-7(4H)-one], the “LD50” value in series [1] was over 10 µM. In series [2], the pIC50 was 5.66 and the maximal fold induction was 1.9.

For `O=c1ccc2ccc(OCc3ccc(F)cc3)cc2o1` [CP-0063508, 7-(4-fluorobenzyloxy)-2H-chromen-2-one], the “LD50” value in series [1] is over 10 µM. In series [2], the negative-log IC50 (pIC50) was under 5.00 and the maximal fold induction turned out to be 1.7.

For `COc1ccc(-c2cc(-c3ccccc3)[nH]n2)c(O)c1` [CP-0064231, 5-methoxy-2-(5-phenyl-1H-pyrazol-3-yl)phenol], the “LD50” value in series [1] was over 10 µM. In series [2], the pIC50 is 6.00 and the maximal fold induction is 1.5.

With `O=C(Nc1ccc(Cl)cn1)c1sc2ccccc2c1Cl` [CP-0064314, 3-chloro-N-(5-chloropyridin-2-yl)benzo[b]thiophene-2-carboxamide], the “LD50” value in series [1] is over 10 µM. Moreover, in series [2], the pIC50 was under 5.00 and the maximal fold induction amounted to 1.7.

Regarding `O=C(Nc1nc2ccc(Br)cc2s1)c1cccs1` [CP-0064917, N-(6-bromobenzo[d]thiazol-2-yl)thiophene-2-carboxamide], in series [1], the “LD50” value is over 10 µM. Further, in series [2], the pIC50 is under 5.00 and the maximal fold induction worked out at 2.

For the compound `Cc1cc(NC(=O)c2ccc3c(c2)OCO3)no1` [CP-0065665, N-(5-methylisoxazol-3-yl)benzo[d][1,3]dioxole-5-carboxamide], in series [1], the “LD50” value is over 10 µM. For the same compound, in series [2], the pIC50 is 6.10 and the maximal fold induction was found to be 1.7.

On to `NC(=O)c1sc2nc3c(cc2c1N)CCCCC3` [CP-0066751, 3-amino-6,7,8,9-tetrahydro-5H-cyclohepta[e]thieno[2,3-b]pyridine-2-carboxamide], for which the “LD50” value in series [1] was over 10 µM. In series [2], the pIC50 is 6.00 and the maximal fold induction stood at 1.9.

In the case of `Cn1c(CCc2ccc(N)cc2)nc2ccccc21` [CP-0066829, 4-(2-(1-methyl-1H-benzo[d]imidazol-2-yl)ethyl)aniline], in series [1], the “LD50” value was over 10 µM. In addition, in series [2], the pIC50 is 6.00 and the maximal fold induction came to 1.8.

`Cc1cc(Cl)ccc1OCc1nc(-c2ccncc2)no1` [CP-0067108, 5-((4-chloro-2-methylphenoxy)methyl)-3-(pyridin-4-yl)-1,2,4-oxadiazole]: in series [1], the “LD50” value was over 10 µM. For the same compound, in series [2], the pIC50 is 5.52 and the maximal fold induction worked out at 1.8.

`Cn1nccc1C(=O)Nc1nc2ccccc2s1` [CP-0067233, N-(benzo[d]thiazol-2-yl)-1-methyl-1H-pyrazole-5-carboxamide]: the “LD50” value in series [1] was over 10 µM. Further, in series [2], the pIC50 was 5.70 and the maximal fold induction is 1.8.

`COc1ccccc1-c1nc(-c2ccc(C)cc2)no1` [CP-0067246, 5-(2-methoxyphenyl)-3-p-tolyl-1,2,4-oxadiazole]: the “LD50” value in series [1] is over 10 µM. Moreover, in series [2], the pIC50 was 5.74 and the maximal fold induction is 1.5.

`c1ccc(OCc2nc(-c3ccccn3)no2)cc1` [CP-0068395, 5-(phenoxymethyl)-3-(pyridin-2-yl)-1,2,4-oxadiazole]: the “LD50” value in series [1] is over 10 µM. In series [2], the pIC50 is 5.52 and the maximal fold induction came out at 1.6.

In the case of `O=C(NCC1CCCO1)c1sc2ccccc2c1Cl` (stereo not drawn) [CP-0068577, 3-chloro-N-((tetrahydrofuran-2-yl)methyl)benzo[b]thio-phene-2-carboxamide], the “LD50” value in series [1] was over 10 µM. For the same compound, in series [2], the negative logarithm of the IC50 (pIC50) was 6.00 and the maximal fold induction stood at 1.6.

Take `Cc1ccc(-c2nc(-c3cccnc3)no2)c(Cl)c1` [CP-0068929, 5-(2-chloro-4-methylphenyl)-3-(pyridin-3-yl)-1,2,4-oxadiazole]: the “LD50” value in series [1] was over 10 µM. Also, in series [2], the pIC50 is 6.40 and the maximal fold induction turned out to be 2.

Regarding `Cc1cccc(/C(N)=N/OC(=O)c2cccnc2)c1` [CP-0069934, (Z)-3-methyl-N′-(nicotinoyloxy) benzimidamide], the “LD50” value in series [1] was over 10 µM. In series [2], the negative logarithm of the IC50 (pIC50) is 5.70 and the maximal fold induction was 1.7.

As for `COc1ccccc1OCc1nc2ccccc2[nH]1` [CP-0069961, 2-((2-methoxyphenoxy)methyl)-1H-benzo[d]imidazole], the “LD50” value in series [1] was over 10 µM. Moreover, in series [2], the pIC50 was 5.70 and the maximal fold induction stood at 1.7.

`Cc1ccc(-c2noc(CN3CCCCC3)n2)cc1` [CP-0070164, 5-(piperidin-1-ylmethyl)-3-p-tolyl-1,2,4-oxadiazole]: the “LD50” value in series [1] was over 10 µM. In series [2], the pIC50 was 5.80 and the maximal fold induction came to 1.7.

`Brc1ccc(-c2nc(-c3cccnc3)no2)cc1` [CP-0070367, 5-(4-bromophenyl)-3-(pyridin-3-yl)-1,2,4-oxadiazole]: the “LD50” value in series [1] is over 10 µM. In series [2], the negative logarithm of the IC50 (pIC50) was 5.70 and the maximal fold induction was 1.7.

Regarding `CCn1ccc(C(=O)Nc2cc(Cl)ccc2Cl)n1` [CP-0070844, N-(2,5-dichlorophenyl)-1-ethyl-1H-pyrazole-3-carboxamide], in series [1], the “LD50” value was over 10 µM. In addition, in series [2], the negative logarithm of the IC50 (pIC50) is 5.70 and the maximal fold induction was 1.7.
